Experimental data: US10392368B2, “Pyrazolo and triazolo bicyclic compounds as JAK kinase inhibitors” (THERAVANCE BIOPHARMA R&D IP, LLC, priority 2017, dated 2019)
Like-named read-outs stand apart in the source and are kept apart here.

Key:
JAK1 = biological target: T1, JAK1 (Homo sapiens, UniProt P23458); assay: Biochemical JAK1 kinase assay (LanthaScreen); settings: for Ki: read-out: JAK 1 (pKi) (converted)
T1 construct: GST; purchased Life Technologies
Outline: (§1)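 Values are pKi, calculated by Cheng-Prusoff from IC50 obtained by robust 4-parameter fitting of percent inhibition. The kinase reaction used GFP-STAT1 peptide in HEPES pH 7.5 buffer with MgCl2, EGTA and Brij-35, ATP-initiated after compound pre-incubation, 1 h at ambient temperature.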

Tyk2 = biological target: T2, Tyk2 (Homo sapiens, UniProt P29597); assay: Biochemical Tyk2 kinase assay (LanthaScreen); settings: for Ki: read-out: Tyk 2 (pKi) (converted)
T2 construct: GST; purchased Life Technologies
Outline: as §1

[1] = tested on: IL-2 stimulated pSTAT5 in Tall-1 T cells; assay: Cellular JAK3 potency assay: inhibition of IL-2 stimulated pSTAT5 in Tall-1 T cells; format: cell-based, human; settings: for IC50: Homo sapiens, read-out: Tall-1 (pIC50) (converted); for Tall-1 (pIC50): IL-2 stimulated pSTAT5, Tall-1 T cells
Outline: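 Tall-1 human T cells were preincubated with compound for 1 h at 37° C, then stimulated with IL-2 (300 ng/ml final) for 30 min. STAT5 phosphorylation in lysates was read by AlphaLisa bead emission, and IC50 from inhibition curves is given as pIC50 (mean±SD).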

JAK3 = biological target: T3, JAK3 (Homo sapiens, UniProt P52333); assay: Biochemical JAK3 kinase assay (LanthaScreen); parameters: GST; purchased Life Technologies; settings: for Ki: read-out: JAK 3 (pKi) (converted)
T3 sequence (P52333 1-1124): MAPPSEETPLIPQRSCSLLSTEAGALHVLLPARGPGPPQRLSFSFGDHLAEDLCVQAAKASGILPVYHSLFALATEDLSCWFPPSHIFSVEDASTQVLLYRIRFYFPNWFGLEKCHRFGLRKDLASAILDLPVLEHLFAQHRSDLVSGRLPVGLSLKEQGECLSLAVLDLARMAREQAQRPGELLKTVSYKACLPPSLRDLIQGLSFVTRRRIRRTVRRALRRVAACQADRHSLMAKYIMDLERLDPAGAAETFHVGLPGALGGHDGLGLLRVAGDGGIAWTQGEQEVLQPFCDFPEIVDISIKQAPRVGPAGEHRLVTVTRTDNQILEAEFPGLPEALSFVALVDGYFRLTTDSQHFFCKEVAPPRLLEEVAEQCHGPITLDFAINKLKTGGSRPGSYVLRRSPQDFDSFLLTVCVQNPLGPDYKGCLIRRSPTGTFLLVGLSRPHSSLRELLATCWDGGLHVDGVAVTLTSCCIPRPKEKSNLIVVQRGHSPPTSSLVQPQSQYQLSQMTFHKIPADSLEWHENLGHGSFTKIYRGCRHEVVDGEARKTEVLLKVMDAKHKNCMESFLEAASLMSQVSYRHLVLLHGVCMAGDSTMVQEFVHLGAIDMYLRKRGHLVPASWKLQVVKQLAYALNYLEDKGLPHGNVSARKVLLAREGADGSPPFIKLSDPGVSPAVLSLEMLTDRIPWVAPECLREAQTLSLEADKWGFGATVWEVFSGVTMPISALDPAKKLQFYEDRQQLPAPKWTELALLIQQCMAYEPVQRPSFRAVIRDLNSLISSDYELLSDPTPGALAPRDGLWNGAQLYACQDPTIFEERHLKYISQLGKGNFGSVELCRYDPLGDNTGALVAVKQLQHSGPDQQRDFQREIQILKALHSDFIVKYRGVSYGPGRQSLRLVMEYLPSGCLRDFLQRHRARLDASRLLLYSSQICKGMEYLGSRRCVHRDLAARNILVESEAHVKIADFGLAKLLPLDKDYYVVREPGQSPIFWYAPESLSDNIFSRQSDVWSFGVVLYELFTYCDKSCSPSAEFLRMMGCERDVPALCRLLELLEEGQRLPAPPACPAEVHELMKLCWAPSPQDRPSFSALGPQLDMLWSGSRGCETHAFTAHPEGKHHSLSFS
Outline: as §1

JAK2 = biological target: T4, JAK2 (Homo sapiens, UniProt O60674); assay: Biochemical JAK2 kinase assay (LanthaScreen); settings: for Ki: read-out: JAK 2 (pKi) (converted)
T4 construct: GST; purchased Life Technologies
Outline: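 pKi values derive from pIC50 via Cheng-Prusoff, with IC50 from a 4-parameter fit of percent-inhibition TR-FRET data using Tb-anti-pSTAT1 (pTyr701) detection. Compound, GST-JAK2 and GFP-STAT1 substrate were pre-incubated 1 h, then ATP started a 1 h ambient reaction (HEPES pH 7.5, 10 mM MgCl2, 1% DMSO).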

[2] = TALL-1, IL-2 stimulated pSTAT5 in Tall-1 T cells
[3] = selectivity: difference of pKi JAK3 and pKi JAK1
[4] = selectivity JAK3 over JAK1, difference of pKi

T2 sequence (P29597 whole entry): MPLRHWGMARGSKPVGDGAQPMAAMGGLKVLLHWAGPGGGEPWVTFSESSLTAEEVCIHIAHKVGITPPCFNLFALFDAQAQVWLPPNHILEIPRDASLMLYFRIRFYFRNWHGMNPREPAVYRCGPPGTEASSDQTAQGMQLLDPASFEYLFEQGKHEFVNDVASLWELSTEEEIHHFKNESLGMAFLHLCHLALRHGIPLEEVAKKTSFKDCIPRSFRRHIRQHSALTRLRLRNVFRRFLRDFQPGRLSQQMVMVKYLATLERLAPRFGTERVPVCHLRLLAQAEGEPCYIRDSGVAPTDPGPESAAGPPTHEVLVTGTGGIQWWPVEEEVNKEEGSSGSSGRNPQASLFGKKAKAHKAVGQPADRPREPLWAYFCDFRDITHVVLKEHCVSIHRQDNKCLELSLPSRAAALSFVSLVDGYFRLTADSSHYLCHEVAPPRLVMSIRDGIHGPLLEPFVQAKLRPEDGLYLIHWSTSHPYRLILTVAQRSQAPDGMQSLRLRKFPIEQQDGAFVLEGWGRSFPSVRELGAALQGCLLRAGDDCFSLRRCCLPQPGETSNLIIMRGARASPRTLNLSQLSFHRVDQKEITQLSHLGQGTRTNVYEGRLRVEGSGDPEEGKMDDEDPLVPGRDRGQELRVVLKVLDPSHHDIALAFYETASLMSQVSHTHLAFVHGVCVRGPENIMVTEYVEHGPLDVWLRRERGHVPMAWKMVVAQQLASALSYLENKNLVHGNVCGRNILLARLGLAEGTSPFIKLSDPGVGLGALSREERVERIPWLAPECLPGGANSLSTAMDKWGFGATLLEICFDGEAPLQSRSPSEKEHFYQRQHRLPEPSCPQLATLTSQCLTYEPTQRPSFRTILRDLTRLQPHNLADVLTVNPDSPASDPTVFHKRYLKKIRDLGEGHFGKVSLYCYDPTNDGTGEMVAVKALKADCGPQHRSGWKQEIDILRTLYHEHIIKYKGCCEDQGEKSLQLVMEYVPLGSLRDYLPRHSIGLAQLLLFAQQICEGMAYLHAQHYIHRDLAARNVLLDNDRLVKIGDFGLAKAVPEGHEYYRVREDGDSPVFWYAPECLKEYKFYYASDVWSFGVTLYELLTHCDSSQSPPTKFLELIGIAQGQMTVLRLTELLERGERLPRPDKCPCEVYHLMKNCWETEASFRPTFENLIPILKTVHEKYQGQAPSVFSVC
T1 sequence (P23458 whole entry): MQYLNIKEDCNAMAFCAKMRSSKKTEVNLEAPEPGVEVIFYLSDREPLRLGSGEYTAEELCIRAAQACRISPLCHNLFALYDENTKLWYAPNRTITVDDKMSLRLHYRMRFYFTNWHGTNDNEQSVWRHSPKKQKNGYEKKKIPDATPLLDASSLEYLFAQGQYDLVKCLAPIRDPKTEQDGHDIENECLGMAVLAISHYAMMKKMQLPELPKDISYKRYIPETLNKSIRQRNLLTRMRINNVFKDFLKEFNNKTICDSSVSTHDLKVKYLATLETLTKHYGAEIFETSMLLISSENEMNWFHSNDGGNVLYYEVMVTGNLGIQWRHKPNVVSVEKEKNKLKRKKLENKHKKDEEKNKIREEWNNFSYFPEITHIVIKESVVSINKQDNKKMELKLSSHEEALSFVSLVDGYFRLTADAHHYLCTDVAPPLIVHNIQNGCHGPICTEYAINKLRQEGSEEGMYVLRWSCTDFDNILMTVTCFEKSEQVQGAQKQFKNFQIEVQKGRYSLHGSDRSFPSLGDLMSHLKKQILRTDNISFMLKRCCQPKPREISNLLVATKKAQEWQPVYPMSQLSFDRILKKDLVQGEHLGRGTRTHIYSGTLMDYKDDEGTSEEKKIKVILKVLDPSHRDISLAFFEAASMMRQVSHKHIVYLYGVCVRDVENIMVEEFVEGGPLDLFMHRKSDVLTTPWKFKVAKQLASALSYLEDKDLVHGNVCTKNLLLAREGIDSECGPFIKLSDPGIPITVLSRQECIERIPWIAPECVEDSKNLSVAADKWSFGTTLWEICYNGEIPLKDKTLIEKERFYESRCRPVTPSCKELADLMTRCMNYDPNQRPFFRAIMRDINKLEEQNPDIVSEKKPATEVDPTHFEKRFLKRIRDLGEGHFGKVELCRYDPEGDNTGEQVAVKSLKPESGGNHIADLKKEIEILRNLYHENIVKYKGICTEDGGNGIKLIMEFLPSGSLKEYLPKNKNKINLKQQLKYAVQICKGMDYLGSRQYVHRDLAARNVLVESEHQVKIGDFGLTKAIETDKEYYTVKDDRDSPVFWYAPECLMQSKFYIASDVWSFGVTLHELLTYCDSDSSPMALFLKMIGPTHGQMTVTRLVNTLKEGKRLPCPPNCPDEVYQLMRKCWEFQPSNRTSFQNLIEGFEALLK
T4 sequence (O60674 whole entry): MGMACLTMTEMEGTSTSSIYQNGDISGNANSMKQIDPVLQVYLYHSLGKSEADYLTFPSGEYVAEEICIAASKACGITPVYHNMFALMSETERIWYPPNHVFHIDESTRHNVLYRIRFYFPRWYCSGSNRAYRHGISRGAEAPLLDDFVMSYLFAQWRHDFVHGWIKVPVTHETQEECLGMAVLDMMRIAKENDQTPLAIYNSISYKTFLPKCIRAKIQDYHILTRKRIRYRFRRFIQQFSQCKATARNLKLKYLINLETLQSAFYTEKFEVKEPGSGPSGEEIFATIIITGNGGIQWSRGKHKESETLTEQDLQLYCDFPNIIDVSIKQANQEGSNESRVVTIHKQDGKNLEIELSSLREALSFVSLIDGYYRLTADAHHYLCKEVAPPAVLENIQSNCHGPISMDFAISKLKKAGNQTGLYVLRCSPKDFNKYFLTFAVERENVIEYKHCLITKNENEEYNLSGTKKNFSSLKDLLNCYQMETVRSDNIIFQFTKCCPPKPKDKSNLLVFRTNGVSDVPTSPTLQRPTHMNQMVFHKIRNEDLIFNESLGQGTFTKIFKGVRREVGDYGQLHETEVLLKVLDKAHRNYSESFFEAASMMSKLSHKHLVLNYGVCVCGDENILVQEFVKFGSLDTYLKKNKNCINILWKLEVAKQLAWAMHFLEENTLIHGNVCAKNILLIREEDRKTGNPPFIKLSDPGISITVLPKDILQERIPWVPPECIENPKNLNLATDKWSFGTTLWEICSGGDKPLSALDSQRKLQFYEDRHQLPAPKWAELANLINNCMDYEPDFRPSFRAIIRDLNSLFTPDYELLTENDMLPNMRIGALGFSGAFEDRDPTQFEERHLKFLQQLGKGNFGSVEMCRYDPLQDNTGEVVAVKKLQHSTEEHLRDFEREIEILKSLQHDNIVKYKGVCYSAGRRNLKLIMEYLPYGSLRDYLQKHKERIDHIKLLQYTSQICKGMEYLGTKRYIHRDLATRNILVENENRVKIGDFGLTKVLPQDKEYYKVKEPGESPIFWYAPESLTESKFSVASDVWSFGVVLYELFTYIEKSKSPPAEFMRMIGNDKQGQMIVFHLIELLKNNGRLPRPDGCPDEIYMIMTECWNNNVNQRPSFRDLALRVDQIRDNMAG

Structure (SMILES) | Ki (JAK1) [nM] | Ki (Tyk2) [nM] | IC50 [1, 2] [nM] | Ki (JAK3) [nM] | JAK3 (pKi)-JAK1 (pKi) (JAK3; [3]) | Ki (JAK2) [nM] | JAK 1 (pKi) (JAK1) | Tyk 2 (pKi) (Tyk2) | Tall-1 (pIC50) [1] | JAK 3 (pKi) (JAK3) | JAK3 (pKi)-JAK1 (pKi) (JAK3; [4]) | JAK 2 (pKi) (JAK2) | IC50 ([1]; TALL-1, IL-2 stimulated pSTAT5, Tall-1 T cells) [nM]
C=CC(=O)N1CC(C)(COc2cc(-c3ccc(O)c(F)c3)nc3[nH]ncc23)C1 [Compound 3-98] | > 100 | > 100 | 31.6 to 200 | < 0.1 | A (a value of 3 or above) | > 100 | – | – | – | – | – | – | –
CN(C)CC=CC(=O)N1CCCC(Oc2cc(-c3ccc(O)c(Cl)c3)cc3[nH]ncc23)C1 (stereo not drawn) [Compound 8-2] | – | – | – | – | – | – | E (a pKi value of 7 or below (Ki of 100 nM or above)) | E (a pKi value of 7 or below (Ki of 100 nM or above)) | B (a pIC50 value between 6.7 (included) and 7.5 (IC50 between 200 nM and 32 nM)) | B (a pKi value between 9 and 10 (Ki between 1 nM and 0.1 nM)) | A (a value of 3 or above) | D (a pKi value between 7 and 8 (Ki between 100 nM and 10 nM)) | –
CN(C)C/C=C/C(=O)N1CC(F)(COc2nc(-c3ccc(O)cc3)nc3[nH]ncc23)C1 [Compound 3-88] | > 100 | > 100 | 31.6 to 200 | 0.1 to 1 | A (a value of 3 or above) | > 100 | – | – | – | – | – | – | –
C=CC(=O)N1CCC(C)(Oc2cc(-c3ccc(O)cc3Cl)cc3[nH]ncc23)C1 (stereo not drawn) [Compound 13-14] | – | – | – | – | – | – | E (a pKi value of 7 or below (Ki of 100 nM or above)) | E (a pKi value of 7 or below (Ki of 100 nM or above)) | A (a pIC50 value≥7.5 (IC50≤32 nM)) | A (a pKi value≥10 (Ki≤0.1 nM)) | A (a value of 3 or above) | D (a pKi value between 7 and 8 (Ki between 100 nM and 10 nM)) | –
C=CC(=O)N1CCC(Oc2cc(-c3ccc(O)cc3)nc3[nH]ncc23)CC1C (stereo not drawn) [Compound 13-12] | – | – | – | – | – | – | E (a pKi value of 7 or below (Ki of 100 nM or above)) | E (a pKi value of 7 or below (Ki of 100 nM or above)) | B (a pIC50 value between 6.7 (included) and 7.5 (IC50 between 200 nM and 32 nM)) | B (a pKi value between 9 and 10 (Ki between 1 nM and 0.1 nM)) | A (a value of 3 or above) | E (a pKi value of 7 or below (Ki of 100 nM or above)) | –
C=CC(=O)N1CC2(CC(Oc3cc(-c4ccc(O)c(F)c4)cc4[nH]ncc34)C2)C1 [Compound 15-2] | – | – | – | – | – | – | D (a pKi value between 7 and 8 (Ki between 100 nM and 10 nM)) | E (a pKi value of 7 or below (Ki of 100 nM or above)) | A (a pIC50 value≥7.5 (IC50≤32 nM)) | A (a pKi value≥10 (Ki≤0.1 nM)) | B (a value of 2.3 to 3) | D (a pKi value between 7 and 8 (Ki between 100 nM and 10 nM)) | –
C=CC(=O)N1CC[C@H](Oc2cc(-c3c(F)cc(O)cc3F)cc3[nH]ncc23)C1 [Compound 1-18] | 10 to 100 | > 100 | < 31.6 | 0.1 to 1 | B (a value of 2.3 to 3) | 10 to 100 | – | – | – | – | – | – | –
CN(C)C/C=C/C(=O)N1CC2(CCC2Oc2cc(-c3ccc(O)cc3)cc3[nH]ncc23)C1 (stereo not drawn) [Compound 12-53] | > 100 | > 100 | – | 0.1 to 1 | – | 1 to 10 | – | – | – | – | B (a value of 2.3 to 3) | – | < 31.6
